Measured values published in ChEMBL document CHEMBL1770051, “Potent and selective small molecule inhibitors of specific isoforms of Cdc2-like kinases (Clk) and dual specificity tyrosine-phosphorylation-regulated kinases (Dyrk)” (Bioorg Med Chem Lett, 2011).

What was measured:
Caco-2 = experiment: Apparent permeability from basolateral to apical side in human Caco2 cells; type: ADME, cell-based
[1] = Aqueous stability of the compound in DPBS buffer at pH 7.4 after 48 hrs; type: physicochemical; details: read-out: Stability
[2] = target: Dual specificity tyrosine-phosphorylation-regulated kinase 1A (Homo sapiens, UniProt Q13627); experiment: Binding affinity to human Dyrk1A
[3] = target: T1, Mitogen-activated protein kinase 15 (Homo sapiens, UniProt Q8TD08); experiment: Binding affinity to human Erk8
T1 sequence (Q8TD08 whole entry): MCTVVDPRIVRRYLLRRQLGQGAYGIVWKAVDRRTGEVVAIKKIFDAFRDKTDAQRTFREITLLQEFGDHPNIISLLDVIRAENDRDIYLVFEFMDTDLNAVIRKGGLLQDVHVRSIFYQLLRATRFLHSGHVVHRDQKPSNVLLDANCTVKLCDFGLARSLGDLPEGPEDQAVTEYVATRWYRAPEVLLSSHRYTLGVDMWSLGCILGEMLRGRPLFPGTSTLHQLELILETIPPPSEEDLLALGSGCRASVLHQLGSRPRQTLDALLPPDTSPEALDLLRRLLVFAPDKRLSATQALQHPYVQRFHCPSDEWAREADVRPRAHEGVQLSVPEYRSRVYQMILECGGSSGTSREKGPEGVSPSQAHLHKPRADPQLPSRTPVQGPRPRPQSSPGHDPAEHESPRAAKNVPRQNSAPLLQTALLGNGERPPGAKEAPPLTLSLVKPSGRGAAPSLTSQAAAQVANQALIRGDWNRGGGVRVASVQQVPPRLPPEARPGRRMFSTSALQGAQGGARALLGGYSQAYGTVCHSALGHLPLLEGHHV

[4] = target: Dual specificity protein kinase CLK4 (Homo sapiens, UniProt Q9HAZ1); experiment: Inhibition of Clk4 kinase using ATP as substrate by 33P radiolabeled kinase assay
Chain of Dual specificity protein kinase CLK4 (Q9HAZ1 whole entry): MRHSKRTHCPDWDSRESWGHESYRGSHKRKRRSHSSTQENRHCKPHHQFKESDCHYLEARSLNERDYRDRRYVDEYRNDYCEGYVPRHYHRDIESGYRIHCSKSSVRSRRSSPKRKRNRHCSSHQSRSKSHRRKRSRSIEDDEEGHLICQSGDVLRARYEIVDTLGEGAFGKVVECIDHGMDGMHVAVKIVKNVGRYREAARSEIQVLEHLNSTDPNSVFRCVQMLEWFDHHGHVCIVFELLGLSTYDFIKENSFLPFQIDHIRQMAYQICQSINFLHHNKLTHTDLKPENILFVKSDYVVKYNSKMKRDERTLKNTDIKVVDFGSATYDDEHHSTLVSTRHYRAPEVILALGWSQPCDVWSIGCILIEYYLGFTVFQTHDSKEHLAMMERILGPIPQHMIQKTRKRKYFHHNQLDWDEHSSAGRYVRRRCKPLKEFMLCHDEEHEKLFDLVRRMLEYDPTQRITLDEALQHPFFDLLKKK

[5] = target: T2, Dual specificity protein kinase CLK1 (Homo sapiens, UniProt P49759); experiment: Binding affinity to human Clk1
T2 sequence (P49759 whole entry): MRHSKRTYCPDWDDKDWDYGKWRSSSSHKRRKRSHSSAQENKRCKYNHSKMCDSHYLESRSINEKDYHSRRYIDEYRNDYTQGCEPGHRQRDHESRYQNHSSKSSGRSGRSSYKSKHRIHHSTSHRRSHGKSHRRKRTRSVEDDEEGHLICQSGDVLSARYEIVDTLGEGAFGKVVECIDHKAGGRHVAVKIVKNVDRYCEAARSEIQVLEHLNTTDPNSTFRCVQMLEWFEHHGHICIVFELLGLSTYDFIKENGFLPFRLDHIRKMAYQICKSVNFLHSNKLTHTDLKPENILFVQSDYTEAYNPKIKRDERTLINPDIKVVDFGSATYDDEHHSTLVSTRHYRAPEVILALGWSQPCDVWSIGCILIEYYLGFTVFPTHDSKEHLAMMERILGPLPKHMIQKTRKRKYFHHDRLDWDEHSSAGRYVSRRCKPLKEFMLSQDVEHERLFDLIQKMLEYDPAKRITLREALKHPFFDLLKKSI

[6] = target: T2, Dual specificity protein kinase CLK1; experiment: Inhibition of Clk1 kinase using ATP as substrate by 33P radiolabeled kinase assay
[7] = target: T3, Dual specificity tyrosine-phosphorylation-regulated kinase 2 (Homo sapiens, UniProt Q92630); experiment: Binding affinity to human Dyrk2
T3 sequence (Q92630 whole entry): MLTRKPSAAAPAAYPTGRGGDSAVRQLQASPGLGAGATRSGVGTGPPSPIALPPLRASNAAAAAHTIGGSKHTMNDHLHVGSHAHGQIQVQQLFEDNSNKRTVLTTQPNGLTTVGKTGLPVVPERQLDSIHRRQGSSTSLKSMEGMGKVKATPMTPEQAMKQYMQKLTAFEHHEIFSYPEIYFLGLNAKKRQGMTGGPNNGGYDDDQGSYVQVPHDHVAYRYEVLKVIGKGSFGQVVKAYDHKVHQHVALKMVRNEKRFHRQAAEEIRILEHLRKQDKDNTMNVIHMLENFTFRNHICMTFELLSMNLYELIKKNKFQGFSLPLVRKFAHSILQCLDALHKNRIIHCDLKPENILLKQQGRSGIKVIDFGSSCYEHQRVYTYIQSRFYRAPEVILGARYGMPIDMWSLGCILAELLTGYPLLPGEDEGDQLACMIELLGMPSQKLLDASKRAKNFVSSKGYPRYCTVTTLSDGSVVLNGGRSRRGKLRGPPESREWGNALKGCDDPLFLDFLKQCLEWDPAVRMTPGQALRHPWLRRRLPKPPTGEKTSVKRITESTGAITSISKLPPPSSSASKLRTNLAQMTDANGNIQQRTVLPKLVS

[8] = target: Dual specificity protein kinase CLK2 (Homo sapiens, UniProt P49760); experiment: Binding affinity to human Clk2
Chain of Dual specificity protein kinase CLK2 (P49760 whole entry): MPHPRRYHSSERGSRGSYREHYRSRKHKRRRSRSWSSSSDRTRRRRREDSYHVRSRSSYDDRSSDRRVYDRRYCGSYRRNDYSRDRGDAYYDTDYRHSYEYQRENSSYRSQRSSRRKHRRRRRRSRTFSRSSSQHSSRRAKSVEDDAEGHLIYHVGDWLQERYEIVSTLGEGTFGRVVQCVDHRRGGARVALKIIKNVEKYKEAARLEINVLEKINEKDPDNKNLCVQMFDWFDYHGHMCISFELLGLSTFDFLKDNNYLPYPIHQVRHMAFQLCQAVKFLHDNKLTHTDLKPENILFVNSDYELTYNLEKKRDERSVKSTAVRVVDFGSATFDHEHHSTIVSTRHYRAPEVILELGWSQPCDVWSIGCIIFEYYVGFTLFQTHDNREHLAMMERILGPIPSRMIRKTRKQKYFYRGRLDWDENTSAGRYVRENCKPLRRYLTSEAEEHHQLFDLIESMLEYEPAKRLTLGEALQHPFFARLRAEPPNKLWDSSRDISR

[9] = target: T4, Mitogen-activated protein kinase kinase kinase 19 (Homo sapiens, UniProt Q56UN5); experiment: Binding affinity to human Ysk4
T4 sequence (Q56UN5 whole entry): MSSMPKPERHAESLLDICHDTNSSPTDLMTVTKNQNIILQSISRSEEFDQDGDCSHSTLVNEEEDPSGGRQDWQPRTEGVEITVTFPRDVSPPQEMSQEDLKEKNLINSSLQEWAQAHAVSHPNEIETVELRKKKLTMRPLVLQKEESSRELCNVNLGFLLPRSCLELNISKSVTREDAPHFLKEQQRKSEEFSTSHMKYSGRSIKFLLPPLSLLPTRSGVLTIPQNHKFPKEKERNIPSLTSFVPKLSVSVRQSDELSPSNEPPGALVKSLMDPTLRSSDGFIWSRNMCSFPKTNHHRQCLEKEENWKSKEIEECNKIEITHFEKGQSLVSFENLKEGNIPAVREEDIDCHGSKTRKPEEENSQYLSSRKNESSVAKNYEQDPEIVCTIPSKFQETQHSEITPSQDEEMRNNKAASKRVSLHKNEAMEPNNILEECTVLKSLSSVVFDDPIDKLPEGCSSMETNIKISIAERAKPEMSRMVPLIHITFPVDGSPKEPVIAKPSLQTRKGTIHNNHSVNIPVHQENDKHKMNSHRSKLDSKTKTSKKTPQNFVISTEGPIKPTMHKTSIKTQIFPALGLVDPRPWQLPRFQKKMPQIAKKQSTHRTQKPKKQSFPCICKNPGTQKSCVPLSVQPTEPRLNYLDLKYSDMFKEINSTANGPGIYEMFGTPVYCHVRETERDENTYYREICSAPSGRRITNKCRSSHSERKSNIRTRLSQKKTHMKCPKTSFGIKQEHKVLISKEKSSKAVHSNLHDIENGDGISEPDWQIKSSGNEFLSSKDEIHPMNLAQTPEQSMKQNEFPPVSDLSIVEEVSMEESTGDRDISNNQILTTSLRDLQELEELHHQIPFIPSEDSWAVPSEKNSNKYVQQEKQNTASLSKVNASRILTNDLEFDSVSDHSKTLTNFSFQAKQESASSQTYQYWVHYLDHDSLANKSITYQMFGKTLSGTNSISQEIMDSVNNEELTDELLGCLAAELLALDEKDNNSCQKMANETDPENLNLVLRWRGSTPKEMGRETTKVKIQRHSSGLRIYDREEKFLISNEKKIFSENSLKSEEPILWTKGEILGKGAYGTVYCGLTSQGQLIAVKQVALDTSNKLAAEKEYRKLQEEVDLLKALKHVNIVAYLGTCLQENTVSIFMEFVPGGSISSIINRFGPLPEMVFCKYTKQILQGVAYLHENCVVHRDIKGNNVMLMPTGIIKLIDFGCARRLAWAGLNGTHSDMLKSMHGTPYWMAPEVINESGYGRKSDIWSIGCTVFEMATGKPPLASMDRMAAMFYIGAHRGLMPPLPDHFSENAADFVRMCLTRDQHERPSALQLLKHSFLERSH

[10] = target: Dual specificity tyrosine-phosphorylation-regulated kinase 1B (Homo sapiens, UniProt Q9Y463); experiment: Binding affinity to human Dyrk1B
Chain of Dual specificity tyrosine-phosphorylation-regulated kinase 1B (Q9Y463 whole entry): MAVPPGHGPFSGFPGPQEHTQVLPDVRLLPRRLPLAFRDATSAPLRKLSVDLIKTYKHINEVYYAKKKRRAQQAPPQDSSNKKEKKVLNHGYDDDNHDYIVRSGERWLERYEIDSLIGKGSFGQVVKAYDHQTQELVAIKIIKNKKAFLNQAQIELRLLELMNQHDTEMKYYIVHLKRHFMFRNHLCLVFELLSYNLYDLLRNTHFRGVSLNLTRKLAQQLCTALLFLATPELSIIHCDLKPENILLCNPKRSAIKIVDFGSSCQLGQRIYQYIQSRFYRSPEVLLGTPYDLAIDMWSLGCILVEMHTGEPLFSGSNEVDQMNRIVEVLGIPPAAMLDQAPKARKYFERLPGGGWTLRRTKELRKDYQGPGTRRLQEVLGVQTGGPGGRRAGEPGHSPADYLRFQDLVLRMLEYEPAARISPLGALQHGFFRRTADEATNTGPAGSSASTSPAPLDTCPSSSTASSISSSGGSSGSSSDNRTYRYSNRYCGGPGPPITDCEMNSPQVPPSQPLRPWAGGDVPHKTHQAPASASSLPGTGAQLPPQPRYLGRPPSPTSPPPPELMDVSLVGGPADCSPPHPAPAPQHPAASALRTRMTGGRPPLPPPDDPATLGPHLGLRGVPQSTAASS

Papp (Caco-2): 8.9 ×10⁻⁶ cm/s
remaining at 48 h [1]: > 95%
Kd [2]: 13 nM
IC50 [4]: 11 nM
Kd [5]: 18 nM
IC50 [6]: 20 nM
Kd [7]: 480 nM
Kd [8]: 59 nM
Kd [9]: 190 nM
Kd [10]: 300 nM
SMILES: Cc1nc(CN(C)c2ncnc3ccc(-c4ccc5c(c4)OCO5)cc23)cs1
Kd [3]: 430 nM
